Here are results for 3 compounds from patent publication US20070049514A1, “Resonance modulator for diagnosis and therapy” (priority 2003, published 2007).

Test [1] relates to malignant squamous cell cancer (SCCA-HM). As to the kind of experiment: BDP-DNP on squamous cell cancer with T-lymphocytes in tissue culture. Type of test: cell-based. The text has this: FIG. 15 describes the impact of BDP-DNP on cell growth for malignant squamous cell cancer (SCCA-HM) growing in culture (pre-post Rx). On the left are large lacey star shaped squamous 15 cancer cells associated with small white clumps of naïve T-lymphocytes. […] The dark background seen on the right is due to the color of the drug. All the fluffy white cells are large clumps of activated lymphocytes.

The next test has as its target T1, PTP CD45 receptor (Homo sapiens, UniProt P08575).
T1 sequence (P08575 26-1306): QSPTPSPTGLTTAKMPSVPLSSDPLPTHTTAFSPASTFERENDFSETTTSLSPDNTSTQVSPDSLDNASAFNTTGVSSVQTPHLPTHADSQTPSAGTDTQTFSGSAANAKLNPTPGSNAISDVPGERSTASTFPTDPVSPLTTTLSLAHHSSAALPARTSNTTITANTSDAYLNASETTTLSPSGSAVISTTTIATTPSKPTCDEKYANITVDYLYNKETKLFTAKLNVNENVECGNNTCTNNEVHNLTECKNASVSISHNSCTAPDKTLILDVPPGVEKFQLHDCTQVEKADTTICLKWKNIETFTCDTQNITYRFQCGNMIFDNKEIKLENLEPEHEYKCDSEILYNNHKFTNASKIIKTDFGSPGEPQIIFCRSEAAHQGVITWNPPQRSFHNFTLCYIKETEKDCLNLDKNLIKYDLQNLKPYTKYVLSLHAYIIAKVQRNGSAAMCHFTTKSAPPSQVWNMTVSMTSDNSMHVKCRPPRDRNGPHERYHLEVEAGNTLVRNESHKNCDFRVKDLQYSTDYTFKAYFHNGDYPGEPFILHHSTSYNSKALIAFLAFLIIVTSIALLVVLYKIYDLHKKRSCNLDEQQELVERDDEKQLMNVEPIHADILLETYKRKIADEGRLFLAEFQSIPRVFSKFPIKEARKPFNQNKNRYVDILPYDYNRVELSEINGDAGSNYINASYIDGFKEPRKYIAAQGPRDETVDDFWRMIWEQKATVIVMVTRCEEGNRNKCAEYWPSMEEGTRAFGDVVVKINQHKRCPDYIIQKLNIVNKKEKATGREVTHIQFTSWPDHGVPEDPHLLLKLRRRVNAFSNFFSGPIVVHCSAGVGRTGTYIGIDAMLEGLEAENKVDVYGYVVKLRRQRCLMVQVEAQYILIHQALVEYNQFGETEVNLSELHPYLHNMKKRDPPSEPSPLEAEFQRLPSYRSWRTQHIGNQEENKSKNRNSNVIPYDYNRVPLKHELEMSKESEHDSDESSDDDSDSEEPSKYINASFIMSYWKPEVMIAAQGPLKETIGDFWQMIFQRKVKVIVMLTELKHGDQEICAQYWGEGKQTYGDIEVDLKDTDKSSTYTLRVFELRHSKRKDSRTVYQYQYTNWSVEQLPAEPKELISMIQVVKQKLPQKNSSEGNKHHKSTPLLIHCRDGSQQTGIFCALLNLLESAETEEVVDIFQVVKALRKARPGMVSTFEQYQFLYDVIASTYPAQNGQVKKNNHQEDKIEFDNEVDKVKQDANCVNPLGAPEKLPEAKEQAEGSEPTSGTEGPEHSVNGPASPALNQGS
Briefly: Binding to and up-regulation of PTP CD45 receptor.

Test [2] has as its system lymphocytes in culture. Briefly: Lymphocyte blastogenesis, blasts per high powered field. Type of test: cell-based. Conditions: number of blasts per high powered field. On the procedure: (§1) Once candidates have been selected as potential resonance modulators, they can be easily assayed to determine whether they induce lymphocyte blastogenesis and activate lymphocytes. Such an assay is found in Morgan et al., Anticancer Research 13:1763-1768 (1993), which is incorporated by reference. See also Janossy et al., Clin. Exp. Immunol. 14:581-596 (1973). Briefly, uptake of [^3]thymidine was measured for lymphocytes in culture. Lymphocytes were cultured in RPMI-1640 tissue culture medium supplemented with 10% fetal bovine serum (FBS). Following stimulation with the resonance modulator, tritiated thymidine (2-20 μCi/ml, specific activity 2 Ci/mmol) was added to the cells and incubated with them. The uptake of [^3]thymidine was stopped by the addition of cold 10% trichloroacetic acid after a selected period of time, and the radioactivity of the samples measured in a scintillation counter. The % lymphoblast was determined by counting the number of blasts per high powered field (hpf) while % activation was determined by uptake of the tritiated thymidine. The increase voltage was measured with an oscilloscope as in Example 7.

Test [3] concerns lymphocytes in culture. As to the kind of experiment: Lymphocyte activation, tritiated thymidine uptake. Type of test: cell-based. Conditions: uptake of tritiated thymidine. On the procedure:
as §1

Setting [4] is: 0.4 mcg/mL, 24 hours incubation.

The structures appear in SMILES notation. Like-named read-outs stand apart in the source and are kept apart here.

Take `O=[N+]([O-])c1ccc(NN=C2C(=Cc3ccccc3)CCCC2=Cc2ccccc2)c([N+](=O)[O-])c1` [Compound 38, 2,6-Dibenzylidenecyclohexanone-2,4-dinitrophenylhydrazone]: in test [1] (setting [4]), the “cancer cells after treatment” value was “No cancer cells are detected” and the “effect on naïve T-lymphocytes in the culture” value is reported as “impressive stimulation”. Also, in test [1] (relative to A-007), the “immune modulating anticancer activities vs. A-007” value is 100 fold. Further, on PTP CD45 receptor, the “binding affinities to PTP CD45 receptor” value is listed as “improved binding affinities” and the “effect on PTP CD45 receptor” value is recorded as “upregulates the receptor”. In addition, the “binding affinities to PTP CD45 receptor” value on PTP CD45 receptor (listed as structure 38) is recorded as “excellent binding affinities”. Besides, the “% Lymphoblast” value in the test with lymphocytes in culture [2] is 100%. Further, in the test on lymphocytes in culture [3], the “% Activation” value was determined as 100%.

Take `O=C1c2ccccc2C(=NNc2ccc([N+](=O)[O-])cc2[N+](=O)[O-])c2ccc(O)c(O)c21` [DNPA, 10-[(2,4-dinitrophenyl)hydrazono]-1,2-dihydroxy-10H-anthracen-9-one]: in the test on lymphocytes in culture [2], the “% Lymphoblast” value is 50%. The “% Activation” value in the test on lymphocytes in culture [3] worked out at 75%.

On to `CC(C)C(=O)Nc1ccc([N+](=O)[O-])c(C(F)(F)F)c1` [Fludamide, reference compound], for which the “% Lymphoblast” value in the test with lymphocytes in culture [2] was found to be 0%. In addition, the “% Activation” value with lymphocytes in culture [3] is given as 0%.
